Measurements from PMC10460087, “Structure Activity Relationship and Molecular Docking of Some Quinazolines Bearing Sulfamerazine Moiety as New 3CLpro, cPLA2, sPLA2 Inhibitors” (Molecules, 2023).
Like-named read-outs stand apart in the source and are kept apart here. Marks after values point to notes of the source that are not given here.

What was measured:
sPLA2 [1] = assay: sPLA2 enzyme inhibition assay (Cayman Chemical kit); type: biochemical; details: mean ± SD; tested 0–17.5 µM
Experimental: The sPLA2 screening assay was carried out according to the manufacturer’s protocol (Cayman Chemical). Briefly, 10 μL of sPLA2 was mixed with 10 μL of dimethyl sulfoxide. In a separate experiment, 10 µL of sPLA2 was added to 10 µL standard sPLA2 inhibitor (thioetheramide, 12.5 µM) and 200 µL substrate solution (diheptanoyl thiol). […] In a separate experiment, 10 μL of assay buffer was mixed with 10 μL of dimethyl sulfoxide and 200 µL of substrate solution. The reaction was initiated by the addition 10 µL of DTNB to all samples. The plate was carefully vortexed for 10 s, then covered with a plate cover and incubated for 15 min at 25 °C. Absorbance was recorded at […] using a plate reader and the IC50 was determined for the synthesized compounds (4–6 and 12) as well as the standard drugs.

NO = type: cell-based, mouse; details: for decrease in NO level: compared to LPS-exposed cells
cPLA2 [2] = type: cell-based, mouse; details: for decrease in cPLA2 level: compared to LPS-exposed cells
IL-8 = IL-8 level in LPS-treated isolated lung cells (ELISA); type: cell-based, mouse; details: for decrease in IL-8 level: compared to LPS-exposed cells
TNF-α = type: cell-based, mouse; details: for decrease in TNF-α level: compared to LPS-exposed cells
sPLA2 [3] = type: cell-based, mouse; details: for decrease in sPLA2 level: compared to LPS-exposed cells
SARS-CoV-2 main protease = SARS-CoV-2 main protease (Severe acute respiratory syndrome coronavirus 2, UniProt P0DTD1); assay: biochemical; details: mean ± SD; tested 0–17.5 µM
cPLA2 [4] = assay: biochemical; set-up: species or system bee
Target sequence in this assay (P00630 34-167 limits assumed): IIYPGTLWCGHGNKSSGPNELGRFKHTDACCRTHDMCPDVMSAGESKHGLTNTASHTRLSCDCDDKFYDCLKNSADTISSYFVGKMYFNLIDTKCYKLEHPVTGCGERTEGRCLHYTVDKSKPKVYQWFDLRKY

cPLA2 (bee venom PLA2) = cPLA2 (bee venom PLA2) (Apis mellifera, UniProt P00630); assay: biochemical
cPLA2 (bee venom PLA2), sequence (P00630 34-167 limits assumed): as above

[5] = LPS 1 μg/mL + higher dose: 4 2.84, 5 3.68, 6 1.18, 12 5.47, baicalein 3.88, ivermectin 149.39 µM
[6] = LPS 1 μg/mL + lower dose: 4 1.44, 5 2.08, 6 0.5, 12 2.39, baicalein 0.89, ivermectin 131.01 µM
[7] = higher dose: 4 2.84, 5 3.68, 6 1.18, 12 5.47, baicalein 3.88, ivermectin 149.39 µM
[8] = lower dose: 4 1.44, 5 2.08, 6 0.5, 12 2.39, baicalein 0.89, ivermectin 131.01 µM

Molecule | IC50 (sPLA2 [1]) [nM] | NO level (NO; [5]) | NO level (NO; [6]) | decrease in NO level (NO; [7]) [%] | decrease in NO level (NO; [8]) [%] | cPLA2 level (cPLA2 [2]; [5]) | cPLA2 level (cPLA2 [2]; [6]) | decrease in cPLA2 level (cPLA2 [2]; [7]) [%] | decrease in cPLA2 level (cPLA2 [2]; [8]) [%] | IL-8 level (IL-8; [5]) | IL-8 level (IL-8; [6]) | decrease in IL-8 level (IL-8; [7]) [%] | decrease in IL-8 level (IL-8; [8]) [%] | TNF-α level (TNF-α; [5]) | TNF-α level (TNF-α; [6]) | decrease in TNF-α level (TNF-α; [7]) [%] | decrease in TNF-α level (TNF-α; [8]) [%] | sPLA2 level (sPLA2 [3]; [5]) | sPLA2 level (sPLA2 [3]; [6]) | decrease in sPLA2 level (sPLA2 [3]; [7]) [%] | further results
Cc1ccnc(NS(=O)(=O)c2ccc(N3CC(=O)Nn4c3nc3ccccc3c4=O)cc2)n1 [Compound 6] | 1020 ± 39 | 19.02 ± 1.5 ^b µmol/L | 24.67 ± 2.70 ^e µmol/L | 72.27 | 64.03 | 536.93 ± 23.50 ^b dpm/mL | 830.11 ± 34.00 ^f dpm/mL | 80.94 | 70.54 | 1.17 ± 0.06 ^b ng/mL | 1.79 ± 0.14 ^d ng/mL | 79.62 | 68.82 | 424.25 ± 36.86 ^f pg/mL | 582.31 ± 52.25 ^e pg/mL | 56.72 | 40.59 | 18.29 ± 2.35 ^b pg/mL | 43.44 ± 2.74 ^g pg/mL | 85.88 | decrease in sPLA2 level (sPLA2 [3]; [8]): 66.47%; IC50 (SARS-CoV-2 main protease): 1180 ± 25 nM; IC50 (cPLA2 [4]): 500 ± 8 nM
Ivermectin [reference compound] | 110000 ± 3270 | 50.74 ± 3.34 ^h µmol/L | 62.01 ± 4.81 ^i µmol/L | 26.02 | 9.59 | 1002.65 ± 90.98 ^h dpm/mL | 1172.50 ± 72.55 ^j dpm/mL | 64.41 | 58.39 | 3.10 ± 0.1 ^f ng/mL | 3.77 ± 0.62 ^g ng/mL | 45.99 | 34.32 | 714.29 ± 28.09 ^g pg/mL | 870.22 ± 40.62 ^k pg/mL | 27.13 | 11.23 | 62.31 ± 1.41 ^j pg/mL | 106.13 ± 9.81 ^m pg/mL | 51.41 | decrease in sPLA2 level (sPLA2 [3]; [8]): 18.09%; IC50 (SARS-CoV-2 main protease): 42400 ± 2500 nM; IC50 (cPLA2 (bee venom PLA2)): 138000 ± 1540 nM
O=c1cc(-c2ccccc2)oc2cc(O)c(O)c(O)c12 [Baicalein, reference compound] | 890 ± 41 | 20.53 ± 1.89 ^c µmol/L | 32.01 ± 4.81 ^f µmol/L | 70.07 | 53.33 | 616.34 ± 28.34 ^c dpm/mL | 903.43 ± 35.71 ^g dpm/mL | 78.13 | 67.33 | 1.42 ± 0.13 ^c ng/mL | 2.06 ± 0.23 ^g ng/mL | 75.26 | 64.11 | 431.21 ± 32.88 ^c pg/mL | 639.55 ± 37.84 ^g pg/mL | 56.01 | 34.76 | 24.77 ± 2.73 ^c pg/mL | 54.27 ± 3.46 ^h pg/mL | 80.88 | decrease in sPLA2 level (sPLA2 [3]; [8]): 58.11%; IC50 (cPLA2 [4]): 3880 ± 13 nM
CCOC(=O)c1nn2c(=O)c3ccccc3nc2n1-c1ccc(S(=O)(=O)Nc2nccc(C)n2)cc1 [Compound 12] | 4450 ± 7 | 30.94 ± 3.76 ^f µmol/L | 50.36 ± 3.96 ^h µmol/L | 54.89 | 26.57 | 722.24 ± 30.40 ^e dpm/mL | 1348.21 ± 50.26 dpm/mL | 74.37 | 52.15 | 3.21 ± 0.21 ^f ng/mL | 3.84 ± 0.29 ^g ng/mL | 44.08 | 33.10 | 551.52 ± 24.65 ^f pg/mL | 748.98 ± 31.22 ^j pg/mL | 43.75 | 23.59 | 40.61 ± 4.19 ^f pg/mL | 85.23 ± 6.51 ^l pg/mL | 68.66 | decrease in sPLA2 level (sPLA2 [3]; [8]): 34.22%; IC50 (SARS-CoV-2 main protease): 5470 ± 18 nM; IC50 (cPLA2 [4]): 2390 ± 46 nM
COc1cc(C=Nn2c(Nc3ccc(S(=O)(=O)Nc4nccc(C)n4)cc3)nc3ccccc3c2=O)ccc1O [Compound 5] | 2730 ± 8 | 29.37 ± 2.21 ^f µmol/L | 45.75 ± 2.87 ^g µmol/L | 57.18 | 33.29 | 719.32 ± 37.15 ^e dpm/mL | 1258.99 ± 35.57 ^k dpm/mL | 74.48 | 55.32 | 2.40 ±0.09 ^e ng/mL | 2.74 ± 0.32 ^c ng/mL | 58.19 | 52.26 | 524.98 ± 19.11 ^e pg/mL | 671.91 ± 23.11 ^i pg/mL | 46.44 | 31.26 | 34.17 ± 1.73 ^e pg/mL | 72.13 ± 3.94 ^k pg/mL | 73.63 | decrease in sPLA2 level (sPLA2 [3]; [8]): 44.33%; IC50 (SARS-CoV-2 main protease): 3680 ± 2350 nM; IC50 (cPLA2 [4]): 2080 ± 16 nM
Cc1ccnc(NS(=O)(=O)c2ccc(Nc3nc4ccccc4c(=O)n3N)cc2)n1 [Compound 4] | 2840 ± 26 | 25.18 ± 2.98 ^d µmol/L | 37.27 ± 3.00 ^c µmol/L | 63.29 | 45.66 | 671.05 ± 29.17 ^d dpm/mL | 1077.77 ± 68.61 ^i dpm/mL | 76.19 | 61.75 | 2.17 ± 0.07 ^d ng/mL | 2.55 ± 0.26 ^c ng/mL | 62.20 | 55.57 | 481.36 ± 39.63 ^d pg/mL | 654.20 ± 22.28 ^h pg/mL | 50.90 | 33.36 | 29.10 ± 2.52 ^d pg/mL | 57.93 ± 2.92 ^i pg/mL | 77.54 | decrease in sPLA2 level (sPLA2 [3]; [8]): 55.29%; IC50 (SARS-CoV-2 main protease): 2012 ± 4 nM; IC50 (cPLA2 [4]): 1440 ± 9 nM
